Laboratory results from patent US20170209579A1, “NON-INVASIVE RADIOFREQUENCY FIELD TREATMENT FOR CANCER THERAPY” (Baylor College of Medicine, priority 2014, published 2017).

Tests used:
shMre11 Hep3B cell line = assay: Clonogenic assay, Mre11 knockdown (shMre11) Hep3B cell line; format: cell-based, human
Source text: For generating an Mre11-knockdown cell line, GPIZ lentiviral shRNA (Open biosystems, Lafayette, Colo.) was used according to the supplied protocol. In order to generate lentivirus, Hep3B cells were transfected in separate experiments with three random clones from a,shRNA library against Mre11 or a control shRNA together with a packaging plasmid (Trans-lentiviral packaging system, Open biosystems, Lafayette, Colo.) using lipofectamine 2000 (Invitrogen, Life technologies, Grand Island, N.Y.). Approximately 72 hours later, cells were observed under a microscope to express GFP, which is a marker of expression of shRNA against Mre11. Relative mre11 knockdown was confirmed by western blot analysis.
Clonogenic assay estimates single-cell reproductive viability by measuring the ability of a single cell to form a colony of 50 cells or more. Clonogenic assay in this study was performed as described previously (Franken et al., 2006). Briefly, cancer cells from an exponentially growing, sub-confluent culture were trypsinized and harvested. Approximately 200 cells were counted and plated in each well of a 6-well plate. Approximately 12 hours later, the cells were adherent and treatment conditions were introduced as described herein. […] The number of colonies in each well was counted using a colony counting grid. […]

[1] = system: subcutaneous pancreatic tumors; assay: Tumor size in mice bearing subcutaneous pancreatic tumors, RF + Gemcitabine; format: in vivo, mouse; conditions: Gemcitabine 70 mg/Kg intravenously once per week; higher power RF system (0-1200 W); n=5
Experimental: (13A) Mice bearing subcutaneous pancreatic tumors were exposed to either RF, Gemcitabine, or RF+Gemcitabine once per week until the control group tumor size became a burden (n=5 in each group). The RF system used can be seen in (13B) and is a higher power version (0-1200 W) of the portable RF system. RF conditions were similar to that shown in (13B). Gemcitabine was given intravenously at a dosage of 70 mg/Kg. […] (13A) Mice bearing subcutaneous pancreatic tumors were exposed to non-invasive RF, Gemcitabine, or non-invasive RF+Gemcitabine once per week until the control group tumor size became a burden (n=5 in each group). The non-invasive RF system used can be seen in (13B) and is a higher power version (0-1200 W) of the portable RF system. non-invasive RF conditions were similar to that shown in FIG. 13B. Gemcitabine was given intravenously at a dosage of 70 mg/Kg.

SNU449 cells = assay: Clonogenic assay, SNU449 cells; format: cell-based, human; conditions: irrespective of dose schedule
Experimental: Clonogenic assay estimates single-cell reproductive viability by measuring the ability of a single cell to form a colony of 50 cells or more. Clonogenic assay in this study was performed as described previously (Franken et al., 2006). Briefly, cancer cells from an exponentially growing, sub-confluent culture were trypsinized and harvested. Approximately 200 cells were counted and plated in each well of a 6-well plate. Approximately 12 hours later, the cells were adherent and treatment conditions were introduced as described herein. After varying treatments, media was replaced and cells were allowed 14 days to form colonies. Subsequently, the media was aspirated and cells were washed with PBS once. Colonies were then fixed with glutaraldehyde (6.0% v/v) and stained with crystal violet (0.5% w/v) for 30 minutes on a leveled shaker at 50 RPM. The fixation and staining solution was then aspirated and the 6-well plates were air-dried after gentle rinsing with tap water. The number of colonies in each well was counted using a colony counting grid. […]
Clonogenic assays were performed on Hep3B cells and SNU449 cells after one of two combinations of hyperthermia and gemcitabine compared with hyperthermia or gemcitabine alone. […] Next, clonogenic viability was evaluated at a gemcitabine concentration of 5 ng/ml and varied the duration of hyperthermia (30 minutes to 4 hours).

HepG2 xenograft = assay: Orthotopic HepG2 xenografts in CB17 SCID mice, tumor mass; format: in vivo, mouse
Source text: For in vivo studies, an implanted mouse model of human HCC was generated in CB17SCID mice (Taconic, Hudson, N.Y.). Female mice between 4 and 5 weeks in age were purchased and acclimatized in M.D. Anderson Animal facilities for up to one week. All animals were handled, housed and studied in accordance with the Institutional Animal Care and Use Committee. Tumors were generated after orthotopic implantation of approximately 1.6 million cells into the liver of each mouse (10 mice per group). Bioluminescence imaging indicated tumor development in the majority of mice three weeks after implantation. Euthanasia was performed by carbon dioxide inhalation followed by cervical spine dislocation.
Cultured luciferase and GFP-expression human HCC cell lines (Hep3B and HepG2) were harvested from an exponentially growing culture and washed with PBS. The cells were re-suspended in 3 ml PBS and final centrifugation was performed at 1000 RPM for 5 minutes. Supernatant was discarded and the cell pellet was used for implantation. The concentration of cells achieved using this protocol was 160,000 cells per micro liter. The cells were kept on ice and animals were injected within 3-4 hours after final centrifugation.
Before surgery, hair was removed from the ventral surface of the abdomen using clippers. Mice were anesthetized using 2.5% isoflurane. The surgical field was sterilized with 70% (v/v) ethanol in water. Mice were placed supine on a heating pad and the surgical site was sterilized using povidone iodine swab sticks. After confirming induction of anesthesia, an approximately 1-cm transverse incision was made in the skin of the upper abdomen slightly left of the midline. Deeper layers of muscle and peritoneum were incised and hemostasis was achieved using silver nitrate chemical cautery sticks. By applying gentle pressure on the lower abdomen and lower chest, the left lobe of the liver was eviscerated. […]
Mice with confirmed tumors on bioluminescence were then randomized in groups of 10. […] Sample size was calculated using Stata SE 12.1 for Mac (College Station, Tex.). […]

Nc1ccn([C@@H]2O[C@H](CO)[C@@H](O)C2(F)F)c(=O)n1 [gemcitabine, 2′,2′-difluoro 2′-deoxycytidine]
sensitivity to gemcitabine, shMre11 versus shControl cell line (shMre11 Hep3B cell line; clonogenic survival): more sensitive to gemcitabine | thermal enhancement of gemcitabine toxicity (shMre11 Hep3B cell line; shControl versus shMre11 cells): noted for shControl but not shMre11 cells | tumor size, Gemcitabine+RF group compared to other groups [1]: clear reduction in tumor size | clonogenic survival, gemcitabine combined with hyperthermia (SNU449 cells): dose-dependent enhancement of gemcitabine toxicity | Mean tumor mass [±SD] (HepG2 xenograft; RF then gemcitabine, weekly for three weeks): 107 ± 64 mg | Mean tumor mass [±SD] (HepG2 xenograft; gemcitabine alone, weekly treatments for three weeks): 170 ± 51 mg | Mean tumor mass [±SD] (HepG2 xenograft; gemcitabine then RF, weekly for three weeks): 74 ± 45 mg
